Reference: patent US20240350460A1, “APPLICATION OF HYDRAZIDE COMPOUND IN TUMOR TREATMENT” (NANJING SHIJIANG MEDICINE TECHNOLOGY CO., LTD, priority 2021, published 2024)

Tests used:
Assay type in all cases: cell-based
[1] = system: NCI-H82; test: Cell viability (Promega CellTiter-Glo), inhibitory effect on tumor cell line; conditions: NCI-H82, human small cell lung cancer cell; sensitive group; 3-4 days of culture; n=3
Description: Cell viability was detected using the Promega CellTiter-Glo kit, cell viability was determined by directly measuring intracellular ATP content. […] The name, source and culture conditions of each tumor cell line were as follows: […] HTB-175) was cultured in 10% fetal bovine serum-containing RPMI1640 medium (+P/S).

[2] = system: G-401; test: as above; conditions: G-401, human renal carcinoma Wilms cell; sensitive group; 3-4 days of culture; n=3
Description: (§1) Cell viability was detected using the Promega CellTiter-Glo kit, cell viability was determined by directly measuring intracellular ATP content. […] The name, source and culture conditions of each tumor cell line were as follows: Cell line G-401 (ATCC, No. CRL-1441) was cultured in 10% fetal bovine serum-containing McCoy's 5a medium (+P/S).

[3] = system: MDA-MB-453; test: as above; conditions: Homo sapiens; MDA-MB-453, breast cancer cell; sensitive group; 3-4 days of culture; n=3
Description: as §1, with “MDA-MB-453” for “G-401”, “HTB-131)” for “CRL-1441)”, “Leibovitz's L-15” for “McCoy's 5a”

[4] = system: SW48; test: as above; conditions: SW48, human colon adenocarcinoma cell; sensitive group; 3-4 days of culture; n=3
Description: as §1, with “SW48” for “G-401”, “CCL-231)” for “CRL-1441)”, “Leibovitz's L-15” for “McCoy's 5a”

[5] = system: WSU-DLCL2; test: as above; conditions: WSUDLCL2; WSU-DLCL2, human diffuse large B-cell lymphoma; sensitive group; 3-4 days of culture; n=3
Description: Cell viability was detected using the Promega CellTiter-Glo kit, cell viability was determined by directly measuring intracellular ATP content. […] The name, source and culture conditions of each tumor cell line were as follows: Cell line WSU-DLCL2 (DSMZ, No. ACC-575) was cultured in 10% fetal bovine serum-containing RPMI1640 medium (+P/S).

[6] = system: CFPAC-1; test: as above; conditions: CFPAC-1, human pancreatic cancer cell; insensitive group; 3-4 days of culture; n=3
Description: as §1, with “CFPAC-1” for “G-401”, “CRL-1918)” for “CRL-1441)”, “IMDM” for “McCoy's 5a”

[7] = system: GB-1; test: as above; conditions: GB-1, human glioblastoma cell; insensitive group; 3-4 days of culture; n=3
[8] = system: SF126; test: as above; conditions: SF-126; SF126, human glioblastoma multiforme cell; insensitive group; 3-4 days of culture; n=3
Description: Cell viability was detected using the Promega CellTiter-Glo kit, cell viability was determined by directly measuring intracellular ATP content. […] The name, source and culture conditions of each tumor cell line were as follows: Cell line SF126 (JCRB, No. IFO50286) was cultured in 10% fetal bovine serum-containing EMEM medium (+P/S).

[9] = system: control NCI-H82 cell (NCI-H82 (Con)); test: Cell viability (Promega CellTiter-Glo) on control NCI-H82 cell; conditions: Homo sapiens; NCI-H82 transfected with empty virus vector without NNMT gene; n=3
From the text: (§2) The NNMT protein-overexpressing NCI-H82 cell (NCI-H82 (ov-NNMT)) was obtained by inserting the NNMT gene into NCI-H82 cell using a viral vector. The control NCI-H82 cell (NCI-H82 (Con)) was obtained by transfecting NCI-H82 cell with empty virus vector without carrying NNMT gene.
(§3) The expressing level of NNMT protein in control NCI-H82 cell (NCI-H82 (Con)) and NNMT protein-overexpressing NCI-H82 cell (NCI-H82 (ov-NNMT)) was detected using Western Blot assay (as shown in FIG. 7), it could be seen from FIG. 7 that the NNMT protein in NCI-H82 (ov-NNMT) cell was overexpressed compared with the expression level of NNMT protein in NCI-H82 (Con) cell.

[10] = system: NNMT protein-overexpressing NCI-H82 cell (NCI-H82 (ov-NNMT)); test: Cell viability (Promega CellTiter-Glo) on NNMT protein-overexpressing NCI-H82 cell; conditions: Homo sapiens; NCI-H82 overexpressing NNMT protein (NNMT gene inserted by viral vector); n=3
From the text: as §2, §3

[11] = system: 786-O; test: Cell viability (Promega CellTiter-Glo), inhibitory effect on tumor cell line; conditions: Homo sapiens, 786-0, clear cell renal cell adenocarcinoma cell, insensitive group, 3-4 days of culture, n=3
Description: Cell viability was detected using the Promega CellTiter-Glo kit, cell viability was determined by directly measuring intracellular ATP content. […] The name, source and culture conditions of each tumor cell line were as follows: Cell line 786-O (ATCC, No. CRL-1932) was cultured in 10% fetal bovine serum-containing RPMI1640 medium (+P/S).

| SMILES | IC50 [1] | IC50 [2] | IC50 [3] | IC50 [4] | IC50 [5] | IC50 [6] | IC50 [7] | IC50 [8] | IC50 [9] | IC50 [10] | IC50 [11] |
| --- | --- | --- | --- | --- | --- | --- | --- | --- | --- | --- | --- |
| O=C1OCCN1/N=C/c1ccc([N+](=O)[O-])o1 [Furazolidone, furazolidone] | 8.31 µM | 5.77 µM | 7.73 µM | 8.23 µM | 9.04 µM | > 50 µM | 38.4 µM | > 50 µM | 8.22 µM | 18.5 µM | – |
| O=C(N/N=C/c1ccc([N+](=O)[O-])o1)c1ccc(O)cc1 [Nifuroxazide, nifuroxazide] | 2.48 µM | 3.22 µM | 2.78 µM | 4.05 µM | 4.22 µM | > 50 µM | 20 µM | 16.4 µM | 2.41 µM | 5.01 µM | > 50 µM |
